From patent US9603876B2, “Compositions and methods for restoring gastrointestinal microbiota following antibiotic treatment” (New York University, priority 2008, dated 2017)

What was measured:
Format in all cases: in vivo, C57/B6 mice
[1] = Body composition (fat mass, lean mass, % body fat, bone mineral density) by DEXA in sub-therapeutic antibiotic treated (STAT) mice; conditions: at 6 to 9 weeks, sub-therapeutic dose in drinking water, vs control mice
Excerpt: C57/B6 mice were obtained at weaning (21 days) from Jackson Laboratories (Bar Harbor, Me.). They were weighed and then distributed in cages so that the mean weights of the mice in each cage were equal. The mice were then allowed to adjust to the NYU animal facility. At day 23 of life, the antibiotic-exposure experiment began. Animals were allowed ad libitum access to food and water and maintained with a 12-hour light/dark cycle. The mice were fed standard laboratory chow (Purina Mills International Diet # 5001). These conditions were continued until the time of sacrifice.
Mice were given standard water (pH 6.8) or water containing the following antimicrobial agents (at sub-therapeutic levels) in groups of 5-10 mice per experimental condition.
Body composition (fat mass, lean mass, percent [%] body fat) was determined using dual energy X-ray absorptiometry (DEXA) with a Lunar PIXImus II mouse densitometer (PIXImus, Fitchburg, Wis.) at the time of sacrifice. Each mouse was scanned individually. Data collected from the scan included fat and lean body mass, percent body fat, and bone mineral density.
Since maximal growth of mice in these experiments was during the first 2 weeks after weaning, a group of mice were sacrificed at two weeks, and bone mineral density (BMD) and fat phenotypes assessed. […]

[2] = tested on: Butyryl CoA transferase (BCoAT)-encoding genes; assay: Butyryl CoA transferase (BCoAT) gene qPCR on cecal specimens; conditions: cecal samples
Method: (§1) Approximately 10 mg of fecal or cecal samples were suspended in a solution containing 500 μl of extraction buffer (200 mM Tris (pH 8.0), 200 mM NaCl, 20 mM EDTA), 210 μl of 20% SDS, 500 μl of a mixture of phenol:chloroform (pH 7.9, 24:24), and 500 μl of a slurry of 0.1 mm-diameter zirconia beads. Cells were lysed by mechanical disruption with a bead beater set on high for 2 min at room temperature, followed by extraction with phenol:chloroform (pH 7.9, 24:24), and precipitation with isopropanol. After the sample was suspended in 100 μl of TE buffer, the extraction products were further purified using a modified protocol from the ExtractMaster Fecal DNA extraction kit (Epicentre Technologies, Madison Wis.). Residual protein was precipitated using the Protein Precipitation reagent and inhibitors were removed through an Inhibitor Removal Resin spin column. The final product was suspended in 100 μl of TE buffer.
To test the effect of colonic microbiota on butyrate metabolism, a PCR assay was performed to detect genes encoding an enzyme, Butyryl CoA transferase (BCoAT), regardless of the taxonomic origin of the gene. The following primers were used: BCoATscrF […] (SEQ ID NO: 11) and BCoATscrR […] (SEQ ID NO: 12). BCoAT plays a central role in butyrate metabolism, which is an important short-chain fatty acid (SCFA) in colonic metabolism and provides energy to colonocytes (FIG. 14). […]

[3] = tested on: total fecal eubacterial and fungal levels; assay: Total microbial counts in fecal pellets by qPCR (16S rRNA, fungal ITS2)
Method: At approximately weekly intervals, a fresh fecal pellet was collected from each individual mouse and frozen at −80° C. until DNA could be extracted. At the time of sacrifice, a fecal pellet was collected, as well as the cecal contents.
as §1, with “Residual protein was precipitated using the Protein Precipitation reagent and inhibitors were removed through an Inhibitor Removal Resin spin column. The final product was suspended in 100 μl of TE buffer.” left out
Analysis of total microbial counts in STAT Mice. […] This possibility was addressed by examining total fecal eubacterial levels in penicillin-treated and control mice by a standardized quantitative PCR (qPCR) using primers […] […] Total fungal levels were determined by qPCR using primers directed to the conserved ITS2 region in the fungal rrn operon ITS1F […] […]

[4] = tested on: bacterial populations of cecal contents; assay: RAPD-PCR characterization of the microbial population in cecal contents; conditions: DNA from cecal contents; primers 1254, OPL-02, OPL-12
Method: as §1
Characterization of the microbial population in the fecal samples was performed using random amplified polymorphic DNA PCR(RAPD-PCR). […] The gels were stained with ethidium bromide and imaging was analyzed using imaged. […]
The positive control (+) was DNA from P. acnes strain VPI 0389. […] The letters A, B, C over columns C10, P1, and P2, respectively, were analyzed be measuring luminescence (see FIGS. 9A-B). […]

[5] = tested on: Bacteroidetes and Firmicutes in the cecal microbiota; assay: Phylum-level analysis of cecal bacterial populations by 454 sequencing of 16S rRNA V3 region; conditions: cecal contents, Mann-Whitney U-test
Method: Approximately 10 mg of fecal or cecal samples were suspended in a solution containing 500 μl of extraction buffer (200 mM Tris (pH 8.0), 200 mM NaCl, 20 mM EDTA), 210 μl of 20% SDS, 500 μl of a mixture of phenol:chloroform (pH 7.9, 24:24), and 500 μl of a slurry of 0.1 mm-diameter zirconia beads. Cells were lysed by mechanical disruption with a bead beater set on high for 2 min at room temperature, followed by extraction with phenol:chloroform (pH 7.9, 24:24), and precipitation with isopropanol. […]
Phylum-level analysis of bacterial populations in […] mice. […] Mouse cecal contents were analyzed by 454 pryosequencing (Roche). […] For this experiment, the sequencing run produced 555,233 barcoded sequences with an average read length of 188±2.5 base pairs, an average read/barcode of 5784±676, and a read quality of 35. […] Order-level sequence data were summated to the phylum level and analyzed. […]
In another analysis, the proportion of all of the Eubacteria detected that were represented by the Firmicutes was examined. As shown in FIGS. 13A-B, % body fat measured by densitometry of the control and STAT mice (A) correlates with the ratio of Firmicute/Eubacteria as determined at the family level by 454 sequencing (B). […]

CN(C)[C@@H]1C(O)=C(C(N)=O)C(=O)[C@@]2(O)C(O)=C3C(=O)c4c(O)ccc(Cl)c4[C@@](C)(O)[C@H]3C[C@@H]12 [chlortetracycline, Chlortetracycline]
more fat mass than controls (normalized mean fat mass) [1]: 8.1±3.4%

Penicillin
BCoAT densities compared to controls [2]: increase
number of copies of bacterial or fungal rrn elements vs control [3]: no significant difference
more fat mass than controls (normalized mean fat mass) [1]: 22.9±8.1%
RAPD-PCR products compared to control mice [4]: clear differences

CN[C@H](CC(C)C)C(=O)N[C@H]1C(=O)N[C@@H](CC(N)=O)C(=O)N[C@H]2C(=O)N[C@H]3C(=O)N[C@H](C(=O)N[C@H](C(=O)O)c4cc(O)cc(O)c4-c4cc3ccc4O)[C@H](O)c3ccc(c(Cl)c3)Oc3cc2cc(c3O[C@@H]2O[C@H](CO)[C@@H](O)[C@H](O)[C@H]2O[C@H]2C[C@](C)(N)[C@H](O)[C@H](C)O2)Oc2ccc(cc2Cl)[C@H]1O [vancomycin, Vancomycin]
Firmicutes and B/F ratio compared to the controls [5]: statistically significant
RAPD-PCR products compared to control mice [4]: varying sets of bands
